The values below come from patent US11459331B2, “Chemical compounds” (Avista Pharma Solutions, Inc., priority 2019, dated 2022).

This test concerns the target T1, human EP4 receptor (Homo sapiens, UniProt P35408).
T1 construct: Eurofins Cerep
Kind of test: human EP4 receptor antagonist screen (Eurofins Cerep; cAMP HTRF, PGE2 30 nM stimulus, CHO cells). The class given is cell-based. Conditions: at 100 nM, EP4(h) antagonist effect, human recombinant (CHO cells), 10 min RT, read-out: % inhibition of control reference agonist response (PGE2). As to the method: Compounds were assayed at Eurofins Cerep using the human EP4 receptor antagonist screen. Cellular antagonist effect was calculated as a % inhibition of control reference agonist response for each target (PGE2). In each EP4(h) experiment, a reference antagonist compound, GW627368X, was tested concurrently with the test compounds, and the data were compared with historical values determined at Eurofins. The experiments were accepted in accordance with Eurofins validation Standard Operating Procedure.

SMILES strings stand for the structures.

T1 sequence (P35408 whole entry): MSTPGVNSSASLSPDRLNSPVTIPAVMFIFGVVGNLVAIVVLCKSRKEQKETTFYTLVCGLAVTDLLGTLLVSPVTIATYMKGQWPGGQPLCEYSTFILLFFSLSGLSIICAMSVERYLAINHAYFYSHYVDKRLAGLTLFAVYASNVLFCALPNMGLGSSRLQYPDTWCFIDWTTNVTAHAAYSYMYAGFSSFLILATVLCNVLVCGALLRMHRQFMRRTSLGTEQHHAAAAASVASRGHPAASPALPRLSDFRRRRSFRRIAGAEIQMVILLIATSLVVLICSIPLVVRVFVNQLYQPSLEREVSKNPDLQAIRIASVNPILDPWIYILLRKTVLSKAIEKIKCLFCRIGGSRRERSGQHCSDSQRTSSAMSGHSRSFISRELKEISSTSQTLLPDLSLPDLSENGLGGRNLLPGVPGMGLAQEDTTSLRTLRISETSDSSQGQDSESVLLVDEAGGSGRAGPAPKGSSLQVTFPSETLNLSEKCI

For the compound `CCc1nc2c(C)nc(C)cn2c1-c1ccc(CCNC(=O)NS(=O)(=O)c2ccc(Cl)cc2)cc1` [Compound 1, 1-(4-chlorophenyl)sulfonyl-3-[2-[4-(2-ethyl-6,8-dimethyl-imidazo[1,2-a]pyrazin-3-yl)phenyl]ethyl]urea], the inhibition at 0.1 µM is not below 50%.

With `CCc1nc2c(C)nc(C)cn2c1-c1ccc(CCNC(=O)NS(=O)(=O)c2ccccc2C)cc1` [Compound 2, 1-[2-[4-(2-ethyl-6,8-dimethyl-imidazo[1,2-a]pyrazin-3-yl)phenyl]ethyl]-3-(o-tolylsulfonyl)urea], the inhibition at 0.1 µM was not below 50%.

For `CCc1nc2c(C)nc(-c3ccncc3)cn2c1-c1ccc(CCNC(=O)NS(=O)(=O)c2ccc(C)cc2)cc1` [Compound 13, 1-[2-[4-[2-ethyl-8-methyl-6-(4-pyridyl)imidazo[1,2-a]pyrazin-3-yl]phenyl]ethyl]-3-(p-tolylsulfonyl)urea], the inhibition at 0.1 µM is not below 50%.

As to `Cc1ccc(S(=O)(=O)NC(=O)NCCc2ccc(-c3c(-c4ccon4)nc4c(C)nc(C)cn34)cc2)cc1` [Compound 15, 1-[2-[4-(2-isoxazol-3-yl-6,8-dimethyl-imidazo[1,2-a]pyrazin-3-yl)phenyl]ethyl]-3-(p-tolylsulfonyl)urea], the inhibition at 0.1 µM is not below 50%.

Broadly, the inhibition is the change of the read-out against control, counted positive when it falls.
